From patent US11944637B2, “Biomaterials comprising hyaluronic acid binding peptides and extracellular matrix binding peptides for hyaluronic acid retention and tissue engineering applications” (THE JOHNS HOPKINS UNIVERSITY, priority 2013, dated 2024)
No end group written: not given here.

Tests used:
articular cartilage = assay: Visualization of the HA-bound layer with biotinylated HA on cartilage covalently modified with HABPep; format: binding, bovine; settings: after washing, compared to unmodified cartilage incubated with HA-biotin alone
Experimental: C-HABPep was conjugated to articular cartilage through a heterobifunctional poly(ethylene glycol) (PEG) spacer. Maleimide-PEG-N-hydroxysuccinimide (MAL-PEG-NHS, 3.5 kDa, Jenkem Technologies), which has functionalities that are thiol- and amine-reactive, was dissolved to 5 mM in 50 mM sodium bicarbonate, pH 7.5 and added to the articular surface. The NHS groups were allowed to react with endogenous amines on the cartilage surface for 30 minutes. PEGylation was confirmed by attenuated total reflectance Fourier transform IR spectroscopy (ATR-FTIR; Bruker Vector 22 with a Pike Miracle ATR attachment). Following thorough washes in buffer to remove unreacted crosslinker, a 1.5 mM solution of C-HABPep was added to the surface to react with maleimide groups for an additional 30 minutes. Surfaces were carefully washed to remove unreacted peptide, yielding a cartilage surface with covalently attached HA-binding functionality. Visualization of the HA-bound layer. Cartilage was conjugated with C-HABPep and incubated with biotinylated HA synthesized as previously described. Briefly, HA (975 kDa) was dissolved in 50 mM boric acid, pH 5.2 at 2 mg/ml. This was combined with biotin hydrazide (Sigma) in a 20:1 weight ratio. […] The reaction was allowed to proceed at room temperature for 16 hours, after which it was dialyzed to remove unreacted biotin hydrazide and EDC. […]

collagen I = collagen I (Homo sapiens, UniProt P02452+P08123); assay: Binding of collagen binding peptides conjugated to PEG-fluorescein on a thin coating of collagen I on TCP (fluorescence); settings: for Normalized fluorescence intensity on collagen I coating: after washing, FIG. 2D, 2K; for Fluorescence intensity, binding on collagen I coating: compared to control and scrambled peptide, FIG. 2C, 2J
Excerpt: (§1) FIGS. 2A-2K depict the clinically-relevant, non-covalent strategy, for one-step application of HA binding polymer system on tissue surface of the present invention. 2A, The first step in this strategy for coating a tissue surface is the reaction of a maleimide-PEG-NHS crosslinker with primary amines of the HA-binding peptide. Subsequently, peptides that non-covalently bind to ECM components, such as collagen I and collagen II, also having a thiol end group, is reacted to the maleimide. Finally, this polymer-peptide system of the present invention is mixed with an HA solution that binds to the peptide-polymer system, which on a single application makes a biomaterial-HA coating on the tissue surface. The binding of the collagen binding peptides were analyzed on thin coatings of collagen I and II on polystyrene tissue culture plates. A thin coating of collagen I on TCP with: 2B, i) No peptide, only PEG-fluorescein as a control, ii) scrambled collagen I binding peptide conjugated to PEG-fluorescein, iii) collagen I binding peptide conjugated to PEG-fluorescein, iv) scrambled collagen II binding peptide conjugated to PEG-fluorescein, v) collagen II binding peptide conjugated to PEG-fluorescein. […] A thin coating of collagen II on TCP with: 2G, i) No peptide, only PEG-fluorescein as a control, ii) scrambled collagen I binding peptide conjugated to PEG-fluorescein, iii) collagen I binding peptide conjugated to PEG-fluorescein, iv) scrambled collagen II binding peptide conjugated to PEG-fluorescein, v) collagen II binding peptide conjugated to PEG-fluorescein.
(§2) Second, a clinically relevant one-step injection/coating technology of the present invention was developed based on non-covalent binding of the HABpeptide-polymer system. Tissue surfaces, including, for example, articular cartilage, conjunctiva and sclera of an eye, are collagen I and II enriched, and can act as stable anchoring sites for the ECM binding peptides (ECMBPep). The HA-binding peptide that is linked to the ECMBPep through the PEG spacer can recapture HA that is lost through a physical or biological mechanism and can dynamically bind and concentrate HA where it is needed. Specifically, amine functionality of Col I and II ECMBPep were reacted with NHS-PEG-MAL followed by conjugation of C-HABPep to the Maleimide end groups. The resultant biomaterial composition of the present invention is mixed with HA and applied to tissue surfaces in a single step (FIG. 2A).

collagen II = collagen II (Homo sapiens, UniProt P02458); assay: Binding of collagen binding peptides conjugated to PEG-fluorescein on a thin coating of collagen II on TCP (fluorescence); settings: for Normalized fluorescence intensity on collagen II coating: after washing, FIG. 2F, 2I; for Fluorescence intensity, binding on collagen II coating: compared to control and scrambled peptide, FIG. 2E, 2H
Excerpt: as §1, §2

[1] = system: normal human articular cartilage; assay: Lubrication testing (cartilage-on-cartilage friction), normal cartilage
Experimental: (§3) Cartilage sample preparation for lubrication testing. Cartilage samples were prepared for lubrication testing as a modification on previously published protocols (Arthritis and rheumatism 56, 882-891, (2007); Arthritis and rheumatism 50, 516-525, (2004)). Both normal and osteoarthritis tissue samples were ordered through (NDRI, Philadelphia, PA). Tissue samples were received within 24 hours post-mortem or surgery. Normal and diseased samples were received in a sterile container containing Dulbecco's Modified Eagle Medium (DMEM), and protease inhibitor cocktail. Biopsy punches were used to isolate cylindrical disks (radius=6 mm) and annuli (outer radius=4 mm, inner radius=1.5 mm) with small holes punctured through the cylinder walls to improve fluid depressurization. Due to the 24-hour time point in media washing for 24-hours to eliminate any lubricin, HA, and SAPLs; instead samples were washed for 4-6 hours in PBS on a shaker. HA sample groups were always incubated in HA solution (5 mg/mL) for 24-hours post-washing (FIGS. 4b,c). It should be noted that human cartilage was scarce especially in OA samples received.
In later experiments, covalent modification of cartilage surface by HABpep (FIG. 1) was performed on bovine articular cartilage samples. All non-covalent HABpep modification and in vitro lubrication studies were performed using human articular cartilage samples (FIG. 3). Normal human tissue was isolated from cadavers […]. Human OA cartilage samples were isolated from the patients with ages, 58 (F), 60 (F), 61 (M), 65 (M), 69 (M), 71 (F), who underwent total knee arthroplasty. Care was taken to avoid damaging the articular surface during dissection. Samples (outer diameter=8.0 mm, inner diameter=3.0 mm) were microtomed and evenly cut to obtain a flat surface. The superficial layer was maintained intact and only the deep layer of cartilage was cut to obtain a flat layer to glue to the metal counter-surface while friction measurements. Cartilage was used fresh without freezing or the addition of protease inhibitors so as not to change the surface lubrication properties. Samples were washed vigorously in PBS overnight to deplete the cartilage surface of any residual synovial fluid, after which they were functionalized with an HA-binding layer as needed and incubated at 4° C. for about 24 hours in the test lubricant. […]
(§4) Lubrication testing. […] The samples were bathed in the test lubricant, measured with digital calipers, compressed to 82% of their original combined height, and preconditioned by rotating 2 revolutions in each direction at an effective sliding velocity of 3 mm/s, which is defined as the angular velocity times the effective radius of the annulus Reff=2/3[(Ro3−Ri3)/(Ro2−Ri2)]=2.94 mm. […]

[2] = system: human OA cartilage (severely damaged, OA stage 3-4); assay: Lubrication testing (cartilage-on-cartilage friction), OA cartilage
Experimental: as §3, with “HA sample groups were always incubated in HA solution (5 mg/mL) for 24-hours post-washing (FIGS. 4b,c). It should be noted that human cartilage was scarce especially in OA samples received.” left out
as §4

[3] = normal cartilage without coating, tested in HA bath
[4] = normal cartilage, HA bath compared to PBS bath

Chain of collagen I (P02452 162-1218 limits assumed): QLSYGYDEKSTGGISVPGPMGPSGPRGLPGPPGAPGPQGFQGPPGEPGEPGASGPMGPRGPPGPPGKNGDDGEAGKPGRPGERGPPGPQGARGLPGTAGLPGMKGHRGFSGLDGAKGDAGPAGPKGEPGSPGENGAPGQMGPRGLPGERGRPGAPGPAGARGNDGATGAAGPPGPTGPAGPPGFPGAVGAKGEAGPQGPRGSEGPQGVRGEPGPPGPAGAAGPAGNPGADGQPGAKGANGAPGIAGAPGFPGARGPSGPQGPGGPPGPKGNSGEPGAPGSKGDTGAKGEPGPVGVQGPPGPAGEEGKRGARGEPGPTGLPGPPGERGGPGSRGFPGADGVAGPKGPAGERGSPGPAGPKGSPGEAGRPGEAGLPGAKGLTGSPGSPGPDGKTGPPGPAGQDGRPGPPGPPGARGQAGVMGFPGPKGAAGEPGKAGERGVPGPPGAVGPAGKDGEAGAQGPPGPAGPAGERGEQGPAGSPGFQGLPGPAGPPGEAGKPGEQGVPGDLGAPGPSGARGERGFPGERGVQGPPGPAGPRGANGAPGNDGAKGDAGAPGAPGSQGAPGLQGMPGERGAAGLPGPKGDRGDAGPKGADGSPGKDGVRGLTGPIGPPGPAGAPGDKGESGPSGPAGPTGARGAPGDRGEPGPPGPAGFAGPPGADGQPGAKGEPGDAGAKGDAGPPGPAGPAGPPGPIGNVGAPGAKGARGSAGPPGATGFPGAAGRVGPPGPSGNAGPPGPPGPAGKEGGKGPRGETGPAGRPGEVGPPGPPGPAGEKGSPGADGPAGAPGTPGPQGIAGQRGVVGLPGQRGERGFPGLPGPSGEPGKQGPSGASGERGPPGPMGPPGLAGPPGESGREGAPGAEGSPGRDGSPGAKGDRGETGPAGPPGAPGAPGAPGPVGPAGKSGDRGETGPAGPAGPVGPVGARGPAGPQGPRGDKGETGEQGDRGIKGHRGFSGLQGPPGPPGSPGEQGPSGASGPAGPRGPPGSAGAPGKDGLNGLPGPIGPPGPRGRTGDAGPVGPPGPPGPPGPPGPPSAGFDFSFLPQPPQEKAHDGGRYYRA
Chain of collagen I (P08123 80-1119 limits assumed): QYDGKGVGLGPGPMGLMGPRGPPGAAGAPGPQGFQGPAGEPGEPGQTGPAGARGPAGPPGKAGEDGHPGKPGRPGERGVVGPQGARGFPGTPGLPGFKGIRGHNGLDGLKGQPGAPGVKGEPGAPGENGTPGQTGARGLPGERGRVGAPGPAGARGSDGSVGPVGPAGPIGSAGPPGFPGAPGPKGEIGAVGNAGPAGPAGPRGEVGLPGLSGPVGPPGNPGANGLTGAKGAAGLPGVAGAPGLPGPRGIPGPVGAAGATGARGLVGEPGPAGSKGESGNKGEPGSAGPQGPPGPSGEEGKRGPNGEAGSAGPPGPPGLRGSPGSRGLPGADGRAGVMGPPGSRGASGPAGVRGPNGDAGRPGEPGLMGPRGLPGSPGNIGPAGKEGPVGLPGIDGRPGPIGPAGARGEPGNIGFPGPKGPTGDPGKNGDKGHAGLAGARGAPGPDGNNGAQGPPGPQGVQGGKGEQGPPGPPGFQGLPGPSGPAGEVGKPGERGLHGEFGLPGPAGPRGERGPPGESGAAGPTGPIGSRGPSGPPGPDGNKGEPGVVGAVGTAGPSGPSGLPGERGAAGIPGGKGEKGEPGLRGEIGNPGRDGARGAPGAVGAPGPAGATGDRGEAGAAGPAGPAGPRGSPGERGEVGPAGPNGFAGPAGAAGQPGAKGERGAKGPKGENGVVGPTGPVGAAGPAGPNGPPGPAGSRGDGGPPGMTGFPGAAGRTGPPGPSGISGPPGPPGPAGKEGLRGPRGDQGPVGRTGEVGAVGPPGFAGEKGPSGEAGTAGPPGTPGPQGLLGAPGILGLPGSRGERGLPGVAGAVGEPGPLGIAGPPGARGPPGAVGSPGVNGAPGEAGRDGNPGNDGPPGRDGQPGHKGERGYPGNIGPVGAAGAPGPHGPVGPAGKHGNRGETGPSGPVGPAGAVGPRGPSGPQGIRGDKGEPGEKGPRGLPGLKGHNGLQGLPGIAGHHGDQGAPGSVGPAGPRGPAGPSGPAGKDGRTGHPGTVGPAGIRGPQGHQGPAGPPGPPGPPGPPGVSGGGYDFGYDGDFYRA
Chain of collagen II (P02458 182-1241 limits assumed): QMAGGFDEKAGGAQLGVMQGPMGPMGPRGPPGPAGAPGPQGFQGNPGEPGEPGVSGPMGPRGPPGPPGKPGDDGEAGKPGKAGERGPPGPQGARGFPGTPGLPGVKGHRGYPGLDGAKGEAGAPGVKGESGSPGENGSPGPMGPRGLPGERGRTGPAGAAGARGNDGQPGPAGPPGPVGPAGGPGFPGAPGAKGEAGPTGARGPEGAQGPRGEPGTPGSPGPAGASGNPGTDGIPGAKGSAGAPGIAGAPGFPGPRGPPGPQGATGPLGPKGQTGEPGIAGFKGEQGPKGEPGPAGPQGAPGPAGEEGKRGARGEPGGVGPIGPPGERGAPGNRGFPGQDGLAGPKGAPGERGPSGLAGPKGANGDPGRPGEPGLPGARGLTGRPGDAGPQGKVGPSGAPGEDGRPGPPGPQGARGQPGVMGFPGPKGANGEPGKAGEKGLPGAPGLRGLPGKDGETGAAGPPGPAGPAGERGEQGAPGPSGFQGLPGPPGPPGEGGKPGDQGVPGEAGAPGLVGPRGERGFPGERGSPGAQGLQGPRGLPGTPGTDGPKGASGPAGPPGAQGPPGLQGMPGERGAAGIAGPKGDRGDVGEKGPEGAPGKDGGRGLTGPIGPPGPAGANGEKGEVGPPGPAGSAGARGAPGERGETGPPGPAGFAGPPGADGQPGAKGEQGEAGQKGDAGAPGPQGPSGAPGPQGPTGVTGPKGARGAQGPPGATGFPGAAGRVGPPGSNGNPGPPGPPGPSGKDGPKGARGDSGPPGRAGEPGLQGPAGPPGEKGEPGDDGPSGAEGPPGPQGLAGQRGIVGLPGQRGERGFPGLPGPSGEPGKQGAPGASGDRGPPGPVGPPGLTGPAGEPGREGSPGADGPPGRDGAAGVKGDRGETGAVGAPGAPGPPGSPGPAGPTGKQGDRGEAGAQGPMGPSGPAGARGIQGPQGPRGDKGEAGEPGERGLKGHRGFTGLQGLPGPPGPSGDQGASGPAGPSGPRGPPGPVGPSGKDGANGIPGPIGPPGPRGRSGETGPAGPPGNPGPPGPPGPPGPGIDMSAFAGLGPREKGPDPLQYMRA

| Substance | Normalized fluorescence intensity on collagen I coating (collagen I) | Fluorescence intensity, binding on collagen I coating (collagen I) | Normalized fluorescence intensity on collagen II coating (collagen II) | Fluorescence intensity, binding on collagen II coating (collagen II) | other results |
| --- | --- | --- | --- | --- | --- |
| CRRDDGAHWQFNALTVR (SEQ ID NO: 2) (thiol; MAL-PEG-NHS conjugated to cartilage; listed as Homo sapiens) [HA-binding polymer coating] | – | – | – | – | Staining of bound biotinylated HA (streptavidin, horseradish peroxidase) (articular cartilage): stained darker; Staining of bound biotinylated HA (streptavidin, horseradish peroxidase) (articular cartilage; listed as C-HABPep): greater intensity of staining |
| WYRGRL (SEQ ID NO: 4) (also: PEG-fluorescein conjugate; listed as Homo sapiens) [collagen II binding peptide, ECMBPep for collagen II; tested conjugated to PEG-fluorescein] | did not bind | no significant binding | 1.65 times to that of scrambled peptide | significant binding | – |
| hyaluronic acid [HA] | – | – | – | – | <μk> kinetic friction [1, 3]: 0.008; <μs> static friction [1, 3]: 0.018; decrease of kinetic total friction value [1, 4]: 72%; decrease of static total friction value [1, 4]: 35%; static lubricity value (<μ> in PBS-<μ> in HA), most severely damaged OA samples vs normal cartilage ([2]; FIG. 4w): approximately 5 times; kinetic lubricity value (<μ> in PBS-<μ> in HA), most severely damaged OA samples vs normal cartilage ([2]; FIG. 4x): approximately 5 times |
| YSFYSDESLQ (SEQ ID NO: 3) (also: PEG-fluorescein conjugate; listed as Homo sapiens) [collagen I binding peptide, ECMBPep for collagen I; tested conjugated to PEG-fluorescein] | 1.55 times to that of scrambled peptide | significant binding | did not bind | no significant binding | – |
